In general, IC50 refers to the concentration that inhibits the measured activity by half.

The text below walks through data of paper PMC11352945, “Anticancer Activity of Benzo[a]phenoxazine Compounds Promoting Lysosomal Dysfunction” (Cells, 2024).

The test system of assay [1] is BJ-5ta cells. The assay can be described thus: Sulforhodamine B (SRB) cell viability assay, BJ-5ta. The format is cell-based. The settings on record: Homo sapiens, non-neoplastic cell line, 48 h, read-out: IC50 (μM) ± SD, BJ-5ta. The protocol:
(§1) The cells were allowed to adhere overnight, from 12 h to 18 h, and then treated with increasing concentrations of each compound, C9, A36, and A42 (0.125 μM, 0.25 μM, 0.5 μM, 1 μM, 2.5 μM, and 5 μM), in their respective culture mediums for 48 h. In addition to a negative control that consisted only of cells and growth medium, a negative control containing the highest concentration of the solvent in which the compound was dissolved (DMSO 0.1%) was also used. The SRB assay was performed according to Marques et al.. The IC50 values were obtained using GraphPad Prism version 8.2.1 through the application of a sigmoidal dose–response nonlinear regression, after logarithmic transformation. The selectivity index was determined by dividing the IC50 value of the non-neoplastic BJ-5ta cell line by the IC50 value of the cancer cell lines (IC50 BJ-5ta/IC50 cancer cell line); furthermore, for the CRC model, a second selectivity index was also determined using the non-neoplastic NCM460 cell line (IC50 NCM460/IC50 CRC cell line). According to the results of the selectivity index, the cell line with the highest selectivity value for each of the models, CRC and breast, was selected for subsequent characterization.
(§2) Three CRC-derived cell lines, SW480 (KRAS^G12V), HCT116 (KRAS^G13D), and RKO (BRAF^V600E), harboring somatic mutations on KRAS or BRAF, and two breast-cancer-derived cell lines, MDA-MB-231 (basal like) and MCF7 (luminal A subtype), together with two non-neoplastic cell lines, NCM460 (normal colon mucosal epithelial cell line) and BJ-5ta (normal foreskin fibroblast cell line), were used to study the activity and selectivity of the three new benzo[a]phenoxazine compounds, C9, A36, and A42. All cell lines were treated with a range of drug concentrations (0.125 μM, 0.25 μM, 0.5 μM, 1 μM, 2.5 μM, and 5 μM) for 48 h, and the effect on cell viability was assessed using a sulforhodamine B assay (SRB) (Figure 2). […] In addition, the selectivity index was determined using the BJ-5ta cell line as a reference, as well as the NCM460 cell line for the CRC model (Table 1).

The subject of assay [2] is NCM460 cells. The assay can be described thus: Sulforhodamine B (SRB) cell viability assay, NCM460. The format is cell-based. The settings on record: Homo sapiens, non-neoplastic cell line, 48 h, read-out: IC50 (μM) ± SD, NCM460. The procedure: as §1, §2
For assay [3], the system named is SW480 cells. The assay can be described thus: Sulforhodamine B (SRB) cell viability assay, SW480. The format is cell-based. Conditions: Homo sapiens, CRC cell line, 48 h, read-out: IC50 (μM) ± SD, SW480. The protocol:
as §1, §2

For assay [4], the system named is RKO cells. The assay can be described thus: Sulforhodamine B (SRB) cell viability assay, RKO. The format is cell-based. Conditions: Homo sapiens, CRC cell line, 48 h, read-out: IC50 (μM) ± SD, RKO. The protocol:
as §1, §2

The test system of assay [5] is MCF7 cells. The assay can be described thus: Sulforhodamine B (SRB) cell viability assay, MCF7. The settings on record: Homo sapiens, breast cancer cell line, 48 h, read-out: IC50 (μM) ± SD, MCF7. The format is cell-based. The protocol:
as §1, §2

The subject of assay [6] is RKO cells. The assay can be described thus: Annexin V/PI assay (flow cytometry), RKO. The settings on record: 2 × IC50 and 4 × IC50, 48 h. The format is cell-based, human. The protocol:
RKO and MCF7 cells were seeded in 12-well plates at a density of 1 × 10^5 cells/mL. After 24 h, the cells were treated with C9, A36, and A42 at 2 × IC50 and 4 × IC50 concentrations or 0.1% DMSO (vehicle). Untreated cells were used as controls. After 48 h, floating and adherent cells were collected. The cells were resuspended in […] of binding buffer and treated for 15 min in the dark with 5 μL of Annexin V-FITC (Detection Kit-ab14085) and 5 μL of Propidium Iodide (50 μg/mL). The samples were subjected to flow cytometry analysis, PI fluorescence was detected using the ECD-A channel, and Annexin V fluorescence was detected using the FITC-A channel.
One of the main goals of clinical oncology is the development of compounds and treatments capable of selectively eliminating cancer cells. In this sense, we next evaluated the capability of the compounds to induce cell death in both cell lines. For this, we performed a flow cytometry analysis using annexin V-FITC and propidium iodide PI double staining. The conjugation of these two probes allowed for the discrimination of viable (negative for both), early apoptotic (annexin + and PI−), late apoptotic (annexin+ and PI+), and necrotic (annexin− and PI+) cells. […] Both flouting and attached cells were harvested and double stained.

Assay [7] concerns MCF7 cells. The assay can be described thus: Lysosomal membrane permeabilization (acridine orange, flow cytometry), MCF7. The format is cell-based, human. Conditions: MCF7, 4 × IC50, 48 h. The procedure:
RKO and MCF7 lysosomal membrane permeabilization (LMP) was evaluated through flow cytometry using the Acridine Orange (A.O) probe. RKO and MCF7 cells were seeded in 12-well plates at a density of 1 × 10^5 cells/mL. After 24 h, the cells were treated with the compounds C9, A36, and A42 at 2 × IC50 and 4 × IC50 concentrations or 0.1% DMSO (vehicle). As a control, untreated cells were employed. Following a 48 h period, the adherent and floating cells were collected and subjected to a 15-min dark incubation period at 37 °C with 1 μM A.O. After that, the samples were examined by flow cytometry using the PC5.5 channel.
Following the information obtained with the lead compound and considering the microscopic observations made with these new compounds, we next investigated whether their toxicity was also associated with lysosome targeting. To this end, we evaluated the induction of lysosomal membrane permeabilization (LMP) by flow cytometry, using acridine orange (AO) as probe. This probe allows for an assessment of permeabilization, as its fluorescence decreases upon the release of lysosomal protons. […] The cells that presented decreased AO fluorescence were considered to have permeabilized lysosomes.

The subject of assay [8] is MCF7 cells. The assay can be described thus: ROS levels (DHE, flow cytometry), MCF7. The format is cell-based, human. Conditions: MCF7, 2 × IC50 and 4 × IC50, 48 h. The procedure: The RKO and MCF7 ROS levels were evaluated through flow cytometry using the dihydroethidium (DHE) probe. RKO and MCF7 cells were seeded in 12-well plates at a density of 1 × 10^5 cells/mL. After 24 h, the cells were treated with the compounds C9, A36, and A42 at 2 × IC50 and 4 × IC50 concentrations or 0.1% DMSO (vehicle). As a control, untreated cells were used. The cells were collected after 48 h of treatment, washed with PBS 1×, and stained for 30 min at 37 °C in the dark using 0.5 μM DHE. The DHE mean fluorescence intensity was analyzed by flow cytometry using the PE-A channel.
Since ROS generation is reported to precede LMP and cell death, and in view of reports showing that some compounds of this family increase intracellular ROS levels under certain circumstances, we also investigated whether C9, A36, and A42 had any effects in this regard.
Background: Flow cytometry measures light scatter and fluorescence of single cells or particles in a stream.

Assay [9] has as its system S. cerevisiae. Conditions: yeast S. cerevisiae, microdilution; cited from earlier work. A general note: Dilution methods test growth across graded concentrations, often in twofold steps.

≈ marks a conversion by molar mass, not a printed value.

With `CCCNc1cc2oc3cc(=NCC)c(C)cc-3nc2c2ccccc12` [C9], the IC50 in assay [1] came out at 2.55 ± 0.15 µM; in [2], 1.12 ± 0.13 µM; in [3], 0.78 ± 0.09 µM; in assay [4] it was 0.17 ± 0.01 µM; in [5], 0.84 ± 0.06 µM. Besides, the “Cell death induction (Annexin V/PI)” value in assay [6] is listed as “most powerful compounds”. The “Percentage of cells with LMP (permeabilized lysosomes)” value in assay [7] is given as “more than 80%”. Moreover, in assay [8], the “ROS levels (fluorescence mean of DHE)” value is on record as “higher intensity”. Also, in assay [9], the “MIC (minimum inhibitory concentration)” value was 6.25 µM (≈ 2.16 µg/mL).
